# PubChem BioAssay (NCI)
#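 Here, GI50 denotes the concentration required for 50% inhibition of growth. The concentration for full growth arrest is given as TGI.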
# Assays:
# Assay in all cases: inhibition of tumour cell growth, NCI panel, 384-well format
# NCI-H460 NSCLC = system: NCI-H460 NSCLC
# SF-539 CNS = system: SF-539 CNS
# SK-OV-3 ovarian = system: SK-OV-3 ovarian
# UACC-257 melanoma = system: UACC-257 melanoma
# HCC-2998 colon = system: HCC-2998 colon
# CCRF-CEM leukemia = system: CCRF-CEM leukemia
# PC-3 prostate = system: PC-3 prostate
# KM12 colon = system: KM12 colon
# SW-620 colon = system: SW-620 colon
# RPMI-8226 leukemia = system: RPMI-8226 leukemia
# OVCAR-8 ovarian = system: OVCAR-8 ovarian
# T-47D breast = system: T-47D breast
# NCI-H226 lung = system: NCI-H226 lung
# M14 melanoma = system: M14 melanoma
# TK-10 renal = system: TK-10 renal
# NCI-H322M lung = system: NCI-H322M lung
# NCI/ADR-RES ovarian = system: NCI/ADR-RES ovarian
# COLO 205 colon = system: COLO 205 colon
# HS 578T breast = system: HS 578T breast
# HCT-15 colon = system: HCT-15 colon
# MOLT-4 leukemia = system: MOLT-4 leukemia
# HOP-92 NSCLC = system: HOP-92 NSCLC
# SN12C renal = system: SN12C renal
# BT-549 breast = system: BT-549 breast
# IGROV1 ovarian = system: IGROV1 ovarian
# ACHN renal = system: ACHN renal
# SF-295 CNS = system: SF-295 CNS
# MDA-MB-435 melanoma = system: MDA-MB-435 melanoma
# HOP-62 NSCLC = system: HOP-62 NSCLC
# SK-MEL-5 melanoma = system: SK-MEL-5 melanoma
# SNB-75 CNS = system: SNB-75 CNS
# SK-MEL-28 melanoma = system: SK-MEL-28 melanoma
# MALME-3M melanoma = system: MALME-3M melanoma
# A549 NSCLC = system: A549 NSCLC
# NCI-H23 lung = system: NCI-H23 lung
# SNB-19 CNS = system: SNB-19 CNS
# A498 renal = system: A498 renal
# OVCAR-5 ovarian = system: OVCAR-5 ovarian
# MDA-MB-468 breast = system: MDA-MB-468 breast
# RXF 393 renal = system: RXF 393 renal
# K-562 leukemia = system: K-562 leukemia
# HCT-116 colon = system: HCT-116 colon
# UO-31 renal = system: UO-31 renal
# 786-0 renal = system: 786-0 renal
# SF-268 CNS = system: SF-268 CNS
# EKVX NSCLC = system: EKVX NSCLC
# OVCAR-4 ovarian = system: OVCAR-4 ovarian
# CAKI-1 renal = system: CAKI-1 renal
# MCF7 breast = system: MCF7 breast
# HT29 colon = system: HT29 colon
# NCI-H522 lung = system: NCI-H522 lung
# HL-60(TB) leukemia = system: HL-60(TB) leukemia
# OVCAR-3 ovarian = system: OVCAR-3 ovarian
# U251 glioblastoma = system: U251 glioblastoma
compound,measurement,setting,value
COc1cc(C(=O)NC2CCN(C)CC2)ccc1Nc1ncc2c(n1)N(C1CCCC1)CC(F)(F)C(=O)N2C,GI50,NCI-H460 NSCLC,11.5 nM
same,TGI,NCI-H460 NSCLC,35.5 nM
same,GI50,SF-539 CNS,17.2 nM
same,TGI,SF-539 CNS,263 nM
same,GI50,SK-OV-3 ovarian,11.4 nM
same,TGI,SK-OV-3 ovarian,494 nM
same,GI50,UACC-257 melanoma,21.7 nM
same,TGI,UACC-257 melanoma,2060 nM
same,GI50,HCC-2998 colon,11.6 nM
same,TGI,HCC-2998 colon,39.6 nM
same,GI50,CCRF-CEM leukemia,< 10 nM
same,TGI,CCRF-CEM leukemia,< 10 nM
same,GI50,PC-3 prostate,33.8 nM
same,TGI,PC-3 prostate,13200 nM
same,GI50,KM12 colon,< 10 nM
same,TGI,KM12 colon,11200 nM
same,GI50,SW-620 colon,< 10 nM
same,TGI,SW-620 colon,97.4 nM
same,GI50,RPMI-8226 leukemia,18.8 nM
same,TGI,RPMI-8226 leukemia,43.7 nM
same,GI50,OVCAR-8 ovarian,12.3 nM
same,TGI,OVCAR-8 ovarian,29.3 nM
same,GI50,T-47D breast,28.2 nM
same,TGI,T-47D breast,365 nM
same,GI50,NCI-H226 lung,1560 nM
same,TGI,NCI-H226 lung,6190 nM
same,GI50,M14 melanoma,12.5 nM
same,TGI,M14 melanoma,74.3 nM
same,GI50,TK-10 renal,1090 nM
same,TGI,TK-10 renal,4950 nM
same,GI50,NCI-H322M lung,842 nM
same,TGI,NCI-H322M lung,11800 nM
same,GI50,NCI/ADR-RES ovarian,1660 nM
same,TGI,NCI/ADR-RES ovarian,3980 nM
same,GI50,COLO 205 colon,< 10 nM
same,TGI,COLO 205 colon,10700 nM
same,GI50,HS 578T breast,< 10 nM
same,TGI,HS 578T breast,31.1 nM
same,GI50,HCT-15 colon,219 nM
same,TGI,HCT-15 colon,1220 nM
same,GI50,MOLT-4 leukemia,< 10 nM
same,TGI,MOLT-4 leukemia,< 10 nM
same,GI50,HOP-92 NSCLC,20.7 nM
same,TGI,HOP-92 NSCLC,902 nM
same,GI50,SN12C renal,43.9 nM
same,TGI,SN12C renal,1750 nM
same,GI50,BT-549 breast,11.3 nM
same,TGI,BT-549 breast,159 nM
same,GI50,IGROV1 ovarian,18.6 nM
same,TGI,IGROV1 ovarian,2070 nM
same,GI50,ACHN renal,666 nM
same,TGI,ACHN renal,14100 nM
same,GI50,SF-295 CNS,29.9 nM
same,TGI,SF-295 CNS,134 nM
same,GI50,MDA-MB-435 melanoma,< 10 nM
same,TGI,MDA-MB-435 melanoma,12.2 nM
same,GI50,HOP-62 NSCLC,< 10 nM
same,TGI,HOP-62 NSCLC,2210 nM
same,GI50,SK-MEL-5 melanoma,< 10 nM
same,TGI,SK-MEL-5 melanoma,180 nM
same,GI50,SNB-75 CNS,57.4 nM
same,TGI,SNB-75 CNS,7490 nM
same,GI50,SK-MEL-28 melanoma,46.4 nM
same,TGI,SK-MEL-28 melanoma,4740 nM
same,GI50,MALME-3M melanoma,29.5 nM
same,TGI,MALME-3M melanoma,1590 nM
same,GI50,A549 NSCLC,< 10 nM
same,TGI,A549 NSCLC,707 nM
same,GI50,NCI-H23 lung,< 10 nM
same,TGI,NCI-H23 lung,20 nM
same,GI50,SNB-19 CNS,< 10 nM
same,TGI,SNB-19 CNS,3080 nM
same,GI50,A498 renal,106 nM
same,TGI,A498 renal,12300 nM
same,GI50,OVCAR-5 ovarian,12.2 nM
same,TGI,OVCAR-5 ovarian,1290 nM
same,GI50,MDA-MB-468 breast,< 10 nM
same,TGI,MDA-MB-468 breast,< 10 nM
same,GI50,RXF 393 renal,< 10 nM
same,TGI,RXF 393 renal,35 nM
same,GI50,K-562 leukemia,< 10 nM
same,TGI,K-562 leukemia,19.7 nM
same,GI50,HCT-116 colon,< 10 nM
same,TGI,HCT-116 colon,1170 nM
same,GI50,UO-31 renal,1310 nM
same,TGI,UO-31 renal,7870 nM
same,GI50,786-0 renal,41 nM
same,TGI,786-0 renal,1350 nM
same,GI50,SF-268 CNS,< 10 nM
same,TGI,SF-268 CNS,< 10 nM
same,GI50,EKVX NSCLC,79.3 nM
same,TGI,EKVX NSCLC,2700 nM
same,GI50,OVCAR-4 ovarian,1640 nM
same,TGI,OVCAR-4 ovarian,7570 nM
same,GI50,CAKI-1 renal,194 nM
same,TGI,CAKI-1 renal,10600 nM
same,GI50,MCF7 breast,< 10 nM
same,TGI,MCF7 breast,1440 nM
same,GI50,HT29 colon,< 10 nM
same,TGI,HT29 colon,21.5 nM
same,GI50,NCI-H522 lung,< 10 nM
same,TGI,NCI-H522 lung,< 10 nM
same,GI50,HL-60(TB) leukemia,< 10 nM
same,TGI,HL-60(TB) leukemia,< 10 nM
same,GI50,OVCAR-3 ovarian,< 10 nM
same,TGI,OVCAR-3 ovarian,< 10 nM
same,GI50,U251 glioblastoma,< 10 nM
same,TGI,U251 glioblastoma,1440 nM
